# Test results as given in the Kinase Knowledgebase extract (Sharma et al. 2016).
# Legend:
# MAPK14 (human) [1] = target: MAPK14 (human) (UniProt Q16539); test: Enzyme Assay; details: A375; concentration not given here
# MAPK14 (human) [2] = target: MAPK14 (human) (UniProt Q16539); test: Enzyme Assay; details: A375; concentration not given here; remark: listed apart in the source
# MAPK14 (human), sequence (Q16539 whole entry, looked up): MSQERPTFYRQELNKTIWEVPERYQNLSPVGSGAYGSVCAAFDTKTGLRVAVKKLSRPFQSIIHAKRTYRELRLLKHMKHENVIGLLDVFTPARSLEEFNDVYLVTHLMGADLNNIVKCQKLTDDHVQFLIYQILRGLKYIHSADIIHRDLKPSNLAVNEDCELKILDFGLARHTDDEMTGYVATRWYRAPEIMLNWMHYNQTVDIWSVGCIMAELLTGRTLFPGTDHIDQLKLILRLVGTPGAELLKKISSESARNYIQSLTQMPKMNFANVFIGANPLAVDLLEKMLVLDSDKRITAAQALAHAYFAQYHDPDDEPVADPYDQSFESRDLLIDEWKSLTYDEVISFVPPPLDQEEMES
SMILES,activity (MAPK14 (human) [1]) [%],activity (MAPK14 (human) [2]) [%]
N#CC(=C(/N)Sc1ccccc1N)/C(C#N)=C(\N)Sc1ccccc1N,18.9,6.32
COc1cccc(-c2cc(=O)c3ccccc3o2)c1N,34.7,25.3
